Laboratory results published in patent US10206398B2, “Five-membered C-N-attached aryl sulphide and aryl sulphoxide derivatives as pesticides” (BAYER CROPSCIENCE AKTIENGESELLSCHAFT, priority 2014, dated 2019).
Like-named read-outs stand apart in the source and are kept apart here.

What was measured:
[1] = tested on: Boophilus microplus; assay: Boophilus microplus - injection test; assay type: in vivo; settings: 20 μg/animal, injection into engorged adult female cattle ticks, assessed after 7 days
Protocol: 1. Boophilus microplus—Injection Test
Solvent: dimethyl sulphoxide
To produce a suitable preparation of active compound, 10 mg of active compound are mixed with 0.5 ml of solvent and the concentrate is diluted with solvent to the desired concentration.
1 μl of the active compound solution is injected into the abdomen of 5 engorged adult female cattle ticks (Boophilus microplus). The animals are transferred into dishes and kept in a climate-controlled room.
Efficacy is assessed after 7 days by laying of fertile eggs. Eggs which are not visibly fertile are stored in a climate-controlled cabinet until the larvae hatch after about 42 days. An efficacy of 100% means that none of the ticks has laid any fertile eggs; 0% means that all the eggs are fertile.

[2] = tested on: Tetranychus urticae; assay: Tetranychus urticae - spray test, OP-resistant (bean leaf discs, 6 days); assay type: in vivo; settings: after 6 days; for pest or weed control at 500 g/ha: Tetranychus urticae, foliar, 144 h, read-out: efficacy (spider mites killed)
Method in brief: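 Bean leaf discs carrying all stages of OP-resistant Tetranychus urticae were sprayed with compound formulated in acetone/DMF and diluted in water with 1000 ppm emulsifier. Mortality was scored after 6 days as % efficacy, where 100% means all mites were killed.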

[3] = tested on: Phaedon cochleariae; assay: Phaedon cochleariae - spray test; assay type: in vivo; settings: 500 g/ha, Chinese cabbage leaf discs, after 7 days
Protocol: 4. Phaedon cochleariae—Spray Test
Solvent: 78.0 parts by weight of acetone
• 1.5 parts by weight of dimethylformamide Emulsifier: alkylaryl polyglycol ether
To produce a suitable preparation of active compound, 1 part by weight of active compound is dissolved using the stated parts by weight of solvent and made up with water containing an emulsifier concentration of 1000 ppm until the desired concentration is attained. To produce further test concentrations, the preparation is diluted with emulsifier-containing water.
After 7 days, the efficacy in % is determined. 100% means that all the beetle larvae have been killed; 0% means that no beetle larvae have been killed.

[4] = log P determination by HPLC on reversed-phase columns (C 18), analogous to OECD Guideline 117; assay type: physicochemical; settings: for logP[a]: method [a]; for logP[b]: method [b]; for chromatographic logP: reversed-phase HPLC column (C 18)
Method in brief: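 Reversed-phase C18 HPLC per OECD 117, two conditions: [a] pH 2.7, 0.1% formic acid water/acetonitrile, log P(HCOOH); [b] pH 7.8, 0.001 M ammonium hydrogencarbonate/acetonitrile, log P(neutral). Both use a 10–95% acetonitrile gradient; values are interpolated from retention times against C3–C16 unbranched alkan-2-ones.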

[5] = tested on: Meloidogyne incognita; assay: Meloidogyne incognita - test; assay type: in vivo; settings: 20 ppm, lettuce, after 14 days
Protocol: 2. Meloidogyne incognita—Test Solvent: 125.0 parts by weight of acetone To produce a suitable preparation of active compound, 1 part by weight of active compound is mixed with the stated amount of solvent and the concentrate is diluted with water to the desired concentration. Vessels are filled with sand, active compound solution, an egg/larvae suspension of the southern root-knot nematode (Meloidogyne incognita) and lettuce seeds. The lettuce seeds germinate and the plants develop. The galls develop on the roots. After 14 days, the nematicidal efficacy in % is determined by the formation of galls. 100% means that no galls were found; 0% means that the number of galls on the treated plants corresponds to the untreated control.

[6] = pH 2.7, HPLC, acidic range, pH 2.7, 0.1% aqueous formic acid and acetonitrile, read-out: log P(HCOOH)
[7] = pH 2.7, method [a], read-out: logP[a]
[8] = pH 7.8, HPLC, neutral range, pH 7.8, 0.001 molar aqueous ammonium hydrogencarbonate and acetonitrile, read-out: log P(neutral)
[9] = pH 7.8, method [b], read-out: logP[b]

| Compound | logP[a] [4] | logP[b] [4] | chromatographic logP [4, 6] | chromatographic logP [4, 7] | chromatographic logP [4, 8] | chromatographic logP [4, 9] | efficacy (laying of fertile eggs) [1] [%] | efficacy (spider mites killed) ([2]; 500 g/ha) [%] | efficacy (beetle larvae killed) [3] [%] | nematicidal efficacy (formation of galls) [5] [%] | pest or weed control at 500 g/ha ([2]; 500 g/ha) [%] | efficacy (spider mites killed) ([2]; 100 g/ha) [%] |
| --- | --- | --- | --- | --- | --- | --- | --- | --- | --- | --- | --- | --- |
| CCC(C)NC(=O)N1CC(=O)N(c2cc(SCC(F)(F)F)c(C)cc2F)C1=O (centres unmarked) [compound 44] | 3.64 | 3.58 | – | – | – | – | – | 100 | 100 | – | – | – |
| Cc1cc(F)c(N2C(=O)CN(C(=O)Nc3cccc(CC(F)(F)F)c3)C2=O)cc1SCC(F)(F)F [compound 37] | 4.32 | 4.24 | – | – | – | – | – | 100 | 83 | – | – | – |
| Cc1cc(F)c(N2C(=O)CN(C(=O)Nc3cccc(Cl)c3)C2=O)cc1[S+]([O-])CC(F)(F)F (centres unmarked) [compound 48] | 3.31 | 3.25 | – | – | – | – | 100 | 100 | 83 | 90 | – | – |
| CCC(C)NC(=O)N1CC(=O)N(c2cc([S+]([O-])CC(F)(F)F)c(C)cc2F)C1=O (centres unmarked) [compound 47] | 2.70 | 2.65 | – | – | – | – | 100 | 100 | – | 100 | – | – |
| Cc1cc(C)c([S+]([O-])CC(F)(F)F)cc1N1C(=O)CN(C(=O)Nc2ccc(F)cc2)C1=O (racemic) [compound 99] | 3.01 | 2.92 | – | – | – | – | 100 | – | – | 90 | – | 90 |
| CCNC(=O)N1CC(=O)N(c2cc([S+]([O-])CC(F)(F)F)c(C)cc2F)C1=O (centres unmarked) [compound 9] | 2.05 | 2.05 | – | – | – | – | 100 | 100 | – | 100 | – | – |
| Cc1cc(F)c(N2C(=O)CN(C(=O)Nc3cccc(F)c3)C2=O)cc1SCC(F)(F)F [compound 42] | 3.90 | 3.94 | – | – | – | – | 100 | 100 | – | 90 | – | – |
| Cc1cc(Cl)c(N2C(=O)CN(C(=O)Nc3cccc(CC(F)(F)F)c3)C2=O)cc1[S+]([O-])CC(F)(F)F (racemic) [compound 71] | 3.68 | 3.64 | – | – | – | – | – | 100 | 100 | 90 | – | – |
| Cc1cc(F)c(N2C(=O)CN(C(=O)Nc3cccc(CC(F)(F)F)c3)C2=O)cc1[S+]([O-])CC(F)(F)F (centres unmarked) [compound 43] | 3.45 | 3.41 | – | – | – | – | 100 | 100 | 83 | 100 | – | – |
| Cc1cc(F)c(N2C(=O)CN(C(=O)NCc3ccccc3)C2=O)cc1[S+]([O-])CC(F)(F)F (centres unmarked) [compound 21] | 2.77 | 2.71 | – | – | – | – | 100 | 100 | – | 90 | – | – |
| Cc1cc(C)c([S+]([O-])CC(F)(F)F)cc1N1C(=O)CN(C(=O)Nc2ccccn2)C1=O (racemic) [compound 118] | 2.46 | 2.50 | – | – | – | – | – | – | 100 | – | – | – |
| Cc1cc(F)c(N2C(=O)CN(C(=O)Nc3ccc(F)cc3)C2=O)cc1SCC(F)(F)F [compound 39] | 3.85 | 3.75 | – | – | – | – | – | 100 | 100 | – | – | – |
| Cc1cc(Cl)c(N2C(=O)CN(C(=O)Nc3cccc(Cl)c3)C2=O)cc1[S+]([O-])CC(F)(F)F (racemic) [compound 72] | 3.55 | 3.50 | – | – | – | – | 100 | 100 | 100 | 90 | – | – |

Now from value to molecule, other results behind:

| logP[a] [4] | logP[b] [4] | chromatographic logP [4, 6] | chromatographic logP [4, 7] | chromatographic logP [4, 8] | chromatographic logP [4, 9] | Compound | efficacy (laying of fertile eggs) [1] [%] | efficacy (spider mites killed) ([2]; 500 g/ha) [%] | efficacy (beetle larvae killed) [3] [%] | nematicidal efficacy (formation of galls) [5] [%] | pest or weed control at 500 g/ha ([2]; 500 g/ha) [%] | efficacy (spider mites killed) ([2]; 100 g/ha) [%] |
| --- | --- | --- | --- | --- | --- | --- | --- | --- | --- | --- | --- | --- |
| 3.84 | 3.71 | – | – | – | – | Cc1cc(F)c(N2C(=O)CN(C(=O)NC(C)(C)C)C2=O)cc1SCC(F)(F)F [compound 54] | 100 | 100 | 100 | 100 | – | – |
| 4.09 | 3.96 | – | – | – | – | CCC(C)(C)NC(=O)N1CC(=O)N(c2cc(SCC(F)(F)F)c(C)cc2F)C1=O [compound 101] | – | 100 | 83 | 90 | – | – |
| 2.98 | 2.93 | – | – | – | – | CCNC(=O)N1CC(=O)N(c2cc(SCC(F)(F)F)c(C)cc2F)C1=O [compound 6] | 100 | 100 | – | 90 | – | – |
| – | – | 3.28 | 3.28 | 3.21 | 3.21 | Cc1cc(F)c(N2C(=O)CN(C(=O)NCC(F)(F)F)C2=O)cc1SCC(F)(F)F [Ex. No. 30, 3-[2-Fluoro-4-methyl-5-(2,2,2-trifluoroethylsulphanyl)phenyl]-2,4-dioxo-N-(2,2,2-trifluoroethyl)imidazolidine-1-carboxamide] | – | – | 83 | – | 90 | – |
| 3.46 | 3.33 | – | – | – | – | Cc1cc(C)c(N2C(=O)CN(C(=O)NCC(F)(F)F)C2=O)cc1SCC(F)(F)F [compound 38] | – | 100 | 100 | – | – | – |
| 3.55 | 3.56 | – | – | – | – | Cc1cc(F)c(N2C(=O)C(C)N(C(=O)NCC(F)(F)F)C2=O)cc1SCC(F)(F)F (racemic) [compound 79] | 100 | 100 | 100 | – | – | – |
| – | – | 3.07 | 3.07 | 2.98 | 2.98 | Cc1cc(F)c(N2C(=O)CN(C(=O)NC3CC3)C2=O)cc1SCC(F)(F)F [Ex. No. 1, N-Cyclopropyl-3-[2-fluoro-4-methyl-5-(2,2,2-trifluoroethylsulphanyl)phenyl]-2,4-dioxoimidazolidine-1-carboxamide] | 100 | – | – | 90 | 100 | – |
| 3.51 | 3.40 | – | – | – | – | Cc1cc(Cl)c(N2C(=O)CN(C(=O)NCC(F)(F)F)C2=O)cc1SCC(F)(F)F [compound 53] | – | 100 | 83 | – | – | – |
| – | – | 2.46 | 2.46 | 2.42 | 2.41 | Cc1cc(F)c(N2C(=O)CN(C(=O)NCC(F)(F)F)C2=O)cc1[S+]([O-])CC(F)(F)F (centres unmarked) [Ex. No. 36, 3-[2-Fluoro-4-methyl-5-(2,2,2-trifluoroethylsulphinyl)phenyl]-2,4-dioxo-N-(2,2,2-trifluoroethyl)imidazolidine-1-carboxamide] | 100 | – | – | 90 | 100 | – |
| 3.5 | 3.53 | – | – | – | – | O=C(NCC(F)(F)F)N1CC(=O)N(c2cc(SCC(F)(F)F)c(Cl)cc2Cl)C1=O [compound 106] | – | 100 | 83 | – | – | – |
